The results in this text go back to patent publication US10987317B2, “Inhibition of glutaminase C” (Cornell University, priority 2009, dated 2021).

“Also recorded” adds a separate entry of the source.

The test system of experiment [1] is GA activity in MDA-MB231 cells. Put plainly: GA activity in mitochondrial fractions. Type of experiment: cell-based, human. The note with it: 10 μM, phosphate-independent. As for the experimental part: (§1) 100%=620 moles of glutamine hydrolyzed per minute per mole of enzyme. Data represent the average of 3 experiments (±s.d.). […] Following precipitation of the beads and re-suspension, the samples are analyzed by Western blotting with anti-V5 antibody. […] Data represent the average of 3 experiments (±s.d.). […] Data represent the average of 3 experiments (±s.d.). […] Data represent the average of 3 experiments (±s.d.). FIG. 3E NIH 3T3 cells transiently expressing Dbl are assayed for focus formation in the presence of 10 μM 968 alone or together with […] dimethyl α-ketoglutarate. […] 100%=680 nM glutamine hydrolyzed per minute per 10^5 cells. Data are the average of 3 experiments (=s.d.). […] 100%=750 nM glutamine hydrolyzed per minute per 10^5 cells. Data represent the average of 3 experiments (±s.d.).
FIGS. 11A-E illustrate the effects of different treatments on GA activity. […] The addition of Pi stimulated the GA activity in control 3T3 cells, Dbl-expressing cells, and Cdc42(F28L)-expressing cells by ˜6-fold, 2-fold, and 3-fold, respectively. 100% represents the Pi-stimulated activity measured for Dbl-transformed cells that are not treated with 968. […] The data are plotted as the percentage of GA activity measured for untreated SKBR3 cells and represent the average of 2 experiments. […] 100% represents the P1-stimulated activity measured for untreateDbl-transformed cells. […]

A further experiment concerns normal NIH 3T3 cells. Put plainly: Growth and morphology of control cells. The experiment is classed as cell-based. The note with it: 10% calf serum; 5-10 μM. As for the experimental part:
(§2) FIGS. 1A-E illustrate that the small molecule 968 inhibiting cellular transformation. […] Cells were fixed and stained with crystal violet for counting of foci. Right: 968 was serially diluted (10, 5, 2.5, and 1.25 μM) and evaluated for its ability to inhibit focus formation. […] After 6 days, the cells are counted. 100% represents the number of Dbl-transformed cells counted in the absence of 968 (27.5×10^4 cells). Data represent the average of 3 experiments (±s.d.). […] At the indicated times, the cells are counted. Data represent the average of 3 experiments (±s.d.).

Experiment [2] concerns NIH 3T3 cells stably expressing Cdc42(F28L) and transiently expressing GAC. Briefly: Focus formation by Cdc42(F28L) plus GAC. The experiment is classed as cell-based. The text has this: FIGS. 4A-E illustrate the role of glutaminase C activity in cellular transformation. […] Data represent the average of 3 experiments (±s.d.). […] Data represent the average of 3 experiments (±s.d.). […] 100% represents the activity measured in untreated Dbl-transformed cells. The data represent the average of 2 experiments. […] 100% represents the activity measured in untreated SKBR3 cells. The data represent the average of 2 experiments. […] Data represent the average of 3 experiments (±s.d.).

Experiment [3] concerns NIH 3T3 cells transfected with oncogenic Dbl. Briefly: Dbl-induced cellular transformation (focus-forming assays, growth in low serum, soft agar). The experiment is classed as cell-based. As to the method: as §2
(§3) FIGS. 2A-G illustrate effects of 968 on the transforming activity of constitutively active Rho GTPases and human breast cancer cells. […] Cells are scored after 14 days and plotted as the percentage of the total number of colonies greater than […] in diameter. Data represent the average of 3 experiments (±s.d.). […] Data represent the average of 3 experiments (±s.d.). […] Data represent the average of 3 experiments (±s.d.). […] After 24 hours at 37° C. the migratory cells are fixed, stained with GIEMSA, and counted. Data represent the average of 3 experiments (±s.d.). […] Data represent the average of 3 experiments (±s.d.). […] Data represent the average of 3 experiments (±s.d.). […] Data represent the average of 3 experiments (±s.d.).
FIGS. 5A-C illustrate comparative abilities of 968 and other benzo[a]phenanthrldinones to inhibit the transforming activity of oncogenic Dbl and H-Ras. […] Histograms show the relative levels of Dbl-induced focus formation for the different treatments, compared to Dbl-induced focus formation measured in the presence of DMSO (i.e. solvent control). Data represent the average of 3 experiments (mean±s.d.). […] Histograms show the relative levels of Ras(G12V)-induced focus formation measured for the different treatments, compared to Ras(G12V)-induced focus formation measured in the presence of DMSO (solvent control). Data represent the average of 3 experiments (mean±s.d.). FIG. 5C NIH 3T3 cells stably expressing H-Ras(G12V) that are cultured in DMEM supplemented with 1% calf serum, with the indicated amounts of 968. After 6 days, cells are trypsinized and counted. 100% represents the number of cells counted in the absence of 968, i.e. 26×10^4 cells. Data represent the average of 3 experiments (mean±s.d.).

The test system of the next experiment is SKBR3 cells. Briefly: Breast cancer cell soft agar colony formation and growth. Type of experiment: cell-based, human. As for the experimental part:
as §3, §1

For `CN(C)c1ccc(C2Nc3ccc4ccccc4c3C3=C2C(=O)CC(C)(C)C3)cc1Br` (stereo not drawn) [Compound 968, 5-[3-bromo-4-(dimethylamino)phenyl]-2,2-dimethyl-2,3,5,6-tetrahydrobenzo[a]], in experiment [1], the “basal GA activity” value is listed as “sensitive”. Also, the “effect on growth or morphology of normal NIH 3T3 cells” value with normal NIH 3T3 cells is listed as “no significant effects; also recorded: inability”. Also, in experiment [2], the focus-forming activity result is listed as “blocked”. The “Dbl-induced colony formation in soft agar” value in experiment [3] (10 μM) is listed as “blocked”. For the same compound, the “reversal of 968-inhibition by cell-permeable analog of α-ketoglutarate” value in experiment [3] (focus-formation, 10 μM 968 with 7 μM dimethyl α-ketoglutarate) is on record as “circumvented”; with SKBR3 cells (growth in low serum, 10 μM 968 with 7 μM dimethyl α-ketoglutarate), “circumvented”. For the same compound, the “concentration at which active in blocking Dbl-induced transformation” value in experiment [3] (focus-forming assays or growth in low serum) lay within 1 to 10 µM. Moreover, the “colony formation in soft agar” value with SKBR3 cells (10 μM) is recorded as “inhibits”. Besides, the “growth to high density and in low serum” value in the experiment on SKBR3 cells (10 μM) is listed as “inhibits”.
